From the supplement of paper PMC10307832

What follows are cell lines tested with CC(C)=CC[C@@H](O)C1=CC(=O)c2c(O)ccc(O)c2C1=O [Shikonin] + N=C(N)NC(=N)NCCc1ccccc1 [Phenformin] (partner 250 µM) (assay: relative viability (nuclei count vs DMSO), 5 days (fraction); higher = more cells survive). Conditions: first compound 0.01 µM.
Method in brief: (§1)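 Each reported value is a median over duplicate plates. It expresses relative viability: treated-well nuclei count divided by vehicle-well nuclei count. Lung cancer cell lines in 1536-well plates were dosed by pin tool a day after seeding, alone with one drug or with a fixed anchor-drug dose plus five library-drug doses (not always all listed) in √10 steps, and nuclei were counted after 5 days.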

In order of falling relative viability:
1. NCI-H322M  0.871
2. NCI-H23  0.864
3. NCI-H2085  0.738
4. NCI-H1755  0.696
5. LC-2-ad  0.553
6. NCI-H727  0.523
7. SK-LU-1  0.522
8. HCC-15  0.511
9. NCI-H1355  0.438
10. NCI-H1793  0.424
11. NCI-H1975  0.417
12. SW 1573  0.389
13. RERF-LC-KJ  0.374
14. NCI-H1437  0.299
15. NCI-H358  0.289
16. EPLC-272H  0.282
17. NCI-H1792  0.257
18. ABC-1  0.247
19. EKVX  0.213
20. NCI-H1944  0.198

Same assay, conditions: first compound 0.1 µM

In order of falling relative viability:
1. NCI-H322M  0.856
2. NCI-H2085  0.847
3. NCI-H23  0.812
4. NCI-H838  0.722
5. NCI-H1755  0.668
6. SK-LU-1  0.648
7. LC-2-ad  0.643
8. NCI-H460  0.64
9. NCI-H727  0.604
10. HCC-15  0.545
11. CAL-12T  0.542
12. LXF-289  0.526
13. 201T  0.492
14. NCI-H1395  0.484
15. NCI-H1355  0.483
16. RERF-LC-KJ  0.433
17. NCI-H1734  0.432
18. NCI-H1975  0.431
19. A-427  0.418
20. NCI-H1793  0.417
21. HCC-827  0.404
22. NCI-H2405  0.398
23. NCI-H1915  0.396
24. SW 1573  0.388
25. NCI-H358  0.387
26. NCI-H2023  0.386
27. NCI-H2347  0.384
28. NCI-H1651  0.377
29. NCI-H1437  0.338
30. EPLC-272H  0.309
31. NCI-H661  0.292
32. ABC-1  0.23
33. EKVX  0.229
34. NCI-H1944  0.189
35. NCI-H1792  0.185

Same assay, conditions: first compound 0.3162 µM

In order of rising relative viability:
1. ABC-1  0.206
2. NCI-H1944  0.209
3. EKVX  0.233
4. NCI-H1792  0.241
5. EPLC-272H  0.255
6. NCI-H661  0.275
7. NCI-H1651  0.281
8. NCI-H2347  0.31
9. A-427  0.316
10. SW 1573  0.325
11. NCI-H358  0.329
12. NCI-H1437  0.337
13. NCI-H1734  0.34
14. NCI-H1915  0.368
15. NCI-H1793  0.41
16. NCI-H1975  0.413
17. NCI-H1395  0.419
18. HCC-827  0.42
19. NCI-H2405  0.427
20. 201T  0.428
21. NCI-H2023  0.452
22. NCI-H1355  0.46
23. CAL-12T  0.464
24. HCC-15  0.49
25. RERF-LC-KJ  0.505
26. NCI-H460  0.51
27. LXF-289  0.535
28. NCI-H727  0.579
29. LC-2-ad  0.592
30. SK-LU-1  0.596
31. NCI-H838  0.608
32. NCI-H1755  0.659
33. NCI-H322M  0.754
34. NCI-H2085  0.785
35. NCI-H23  0.849

Same assay, conditions: first compound 1 µM

In order of falling relative viability:
1. NCI-H322M  0.836
2. NCI-H23  0.717
3. LC-2-ad  0.667
4. NCI-H2085  0.637
5. NCI-H838  0.578
6. CAL-12T  0.55
7. NCI-H1755  0.55
8. NCI-H727  0.543
9. LXF-289  0.535
10. SK-LU-1  0.524
11. 201T  0.498
12. NCI-H1355  0.476
13. NCI-H460  0.474
14. NCI-H1395  0.459
15. HCC-15  0.456
16. NCI-H1734  0.425
17. NCI-H1975  0.408
18. NCI-H1793  0.404
19. A-427  0.398
20. NCI-H2405  0.396
21. NCI-H1915  0.395
22. NCI-H1792  0.393
23. HCC-827  0.373
24. NCI-H358  0.37
25. RERF-LC-KJ  0.36
26. NCI-H1651  0.349
27. NCI-H2023  0.341
28. NCI-H1437  0.321
29. NCI-H2347  0.313
30. EPLC-272H  0.298
31. NCI-H661  0.291
32. EKVX  0.243
33. NCI-H1944  0.205
34. ABC-1  0.188
35. SW 1573  0.122

What follows are cell lines tested with CC(C)N(CCCNC(=O)Nc1ccc(C(C)(C)C)cc1)C[C@H]1O[C@@H](n2ccc3c(N)ncnc32)[C@H](O)[C@@H]1O + N=C(N)NC(=N)NCCc1ccccc1 [Phenformin] (partner 250 µM) in the same assay as above. Conditions: first compound 0.08 µM.
Method in brief: as §1

In order of falling relative viability:
1. NCI-H322M  0.795
2. NCI-H23  0.771
3. NCI-H2085  0.693
4. NCI-H1755  0.62
5. CAL-12T  0.539
6. NCI-H2347  0.536
7. LXF-289  0.518
8. NCI-H460  0.493
9. NCI-H838  0.487
10. 201T  0.474
11. NCI-H1355  0.441
12. NCI-H1395  0.433
13. NCI-H2023  0.41
14. NCI-H2405  0.393
15. HCC-827  0.393
16. NCI-H1734  0.38
17. NCI-H1792  0.374
18. A-427  0.368
19. NCI-H1915  0.362
20. NCI-H1651  0.34
21. EPLC-272H  0.286
22. NCI-H661  0.28
23. NCI-H1437  0.278
